The species named for the assay is Rattus norvegicus. The assay can be described thus: Effect on [Ca2+] efflux in rat hepatocytes. The format is functional. The conditions noted are these: Hepatocyte.

For `O=P(O)(O)O[C@@H]1[C@H](O)[C@@H](O[C@@H]2COC[C@@H]2OP(=O)(O)O)O[C@@H](CO)[C@H]1OP(=O)(O)O`, the 50% effective concentration (EC50) stood at 194 nM. This lies in the sub-micromolar range.

`O=P(O)(O)O[C@@H]1[C@H](O)[C@H](O)[C@@H](OP(=O)(O)O)[C@H](OP(=O)(O)O)[C@H]1O` [INS(1,4,5)P3] registered an EC50 of 329 nM.

The term EC50 denotes the concentration at which the effect is half-maximal. A higher EC50 goes with weaker potency.

The values are drawn from ChEMBL document CHEMBL1131932, “Simplification of adenophostin A defines a minimal structure for potent glucopyranoside-based mimics of D-myo-inositol 1,4,5-trisphosphate” (Bioorg Med Chem Lett, 1999).
